30 compounds from patent US10758534B2 (Vertex Pharmaceuticals Incorporated, priority 2014, dated 2020) can be followed below.

What is called EC30 is the concentration needed for an effect of 30%.

The assay concerns the target T1, F508del (Homo sapiens, UniProt P13569, DEL508-508).
T1 construct: expressed in transfected cells
As to the kind of experiment: Protocol 2: FRET membrane potential optical assay (VIPR), identification of correction compounds. The assay is classed as cell-based. An outline of the steps: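 Single-addition HTS format: F508del-expressing NIH3T3 cells pre-incubated 16 hrs at 37° C. ± compound, with 27° C. culture as positive control. Channel activation by forskolin 10 μM and genistein 20 μM upon switch to gluconate bath, pH 7.4; read-out is FRET-based depolarization signal.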

The mark [1] stands for this setting: F508del CFTR modulator activity, compounds of Table 1, read-out: EC30.
Where [2] appears, read: Table 3, compounds of Table 1 as modulators of CFTR activity, protocol not stated.

Like-named read-outs stand apart in the source and are kept apart here. Bounds are passed on as bounds.

T1 sequence (P13569 with tags, fused parts or gaps DEL508-508): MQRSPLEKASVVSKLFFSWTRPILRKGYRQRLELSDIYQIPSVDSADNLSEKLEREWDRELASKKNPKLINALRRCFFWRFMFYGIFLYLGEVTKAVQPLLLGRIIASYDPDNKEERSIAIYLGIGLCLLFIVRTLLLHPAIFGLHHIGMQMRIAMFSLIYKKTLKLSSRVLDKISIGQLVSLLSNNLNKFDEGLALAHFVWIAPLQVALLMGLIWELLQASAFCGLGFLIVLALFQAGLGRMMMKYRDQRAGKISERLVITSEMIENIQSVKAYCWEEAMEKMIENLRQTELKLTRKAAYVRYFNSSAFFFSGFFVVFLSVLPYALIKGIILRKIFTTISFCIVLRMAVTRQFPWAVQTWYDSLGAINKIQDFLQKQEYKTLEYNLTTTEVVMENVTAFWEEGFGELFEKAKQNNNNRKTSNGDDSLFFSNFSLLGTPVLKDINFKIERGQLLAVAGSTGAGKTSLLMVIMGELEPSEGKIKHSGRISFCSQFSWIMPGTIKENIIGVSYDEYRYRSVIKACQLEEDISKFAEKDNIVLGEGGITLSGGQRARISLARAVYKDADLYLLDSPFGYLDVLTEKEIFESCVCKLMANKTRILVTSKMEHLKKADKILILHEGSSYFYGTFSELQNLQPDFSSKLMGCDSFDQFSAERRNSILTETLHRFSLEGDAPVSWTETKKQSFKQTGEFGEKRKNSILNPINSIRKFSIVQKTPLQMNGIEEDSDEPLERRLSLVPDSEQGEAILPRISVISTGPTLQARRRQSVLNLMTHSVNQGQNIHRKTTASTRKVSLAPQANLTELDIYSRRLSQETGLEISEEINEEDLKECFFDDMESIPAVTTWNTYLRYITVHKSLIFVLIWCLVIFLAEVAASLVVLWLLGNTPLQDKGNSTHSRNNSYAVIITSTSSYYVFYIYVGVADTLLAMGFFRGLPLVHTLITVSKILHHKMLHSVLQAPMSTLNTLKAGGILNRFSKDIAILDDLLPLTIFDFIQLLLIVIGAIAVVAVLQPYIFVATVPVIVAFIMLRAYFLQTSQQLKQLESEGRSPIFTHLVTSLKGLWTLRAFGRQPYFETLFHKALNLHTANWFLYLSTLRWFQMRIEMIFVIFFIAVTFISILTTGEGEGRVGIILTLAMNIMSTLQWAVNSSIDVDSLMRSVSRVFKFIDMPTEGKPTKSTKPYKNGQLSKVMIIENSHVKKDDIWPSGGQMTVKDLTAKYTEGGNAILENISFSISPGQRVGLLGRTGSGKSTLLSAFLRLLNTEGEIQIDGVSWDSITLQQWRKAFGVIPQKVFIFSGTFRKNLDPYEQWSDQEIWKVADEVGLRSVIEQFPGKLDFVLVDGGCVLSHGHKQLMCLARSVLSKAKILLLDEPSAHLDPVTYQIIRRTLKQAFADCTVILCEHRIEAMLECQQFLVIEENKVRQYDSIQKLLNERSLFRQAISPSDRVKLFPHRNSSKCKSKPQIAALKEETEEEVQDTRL

`CC(C)COc1cc(F)cc(-c2ccc(C(=O)NS(=O)(=O)c3cccc(N)n3)c(N3CC(C)CCC3C)n2)c1` (single isomer, unassigned) [Compound 2451, N-[(6-amino-2-pyridyl)sulfonyl]-2-(2,5-dimethyl-1-piperidyl)-6-(3-fluoro-5-isobutoxy-phenyl)pyridine-3-carboxamide]: under setting [1], the EC30 is below 3000 nM.
Consider `Cc1cc(C)cc(-c2cnc(N3CC(C)CC3(C)C)c(C(=O)NS(=O)(=O)c3cccc(N)n3)c2)c1` (stereo not drawn) [Compound 2093, N-[(6-amino-2-pyridyl)sulfonyl]-5-(3,5-dimethylphenyl)-2-(2,2,4-trimethylpyrrolidin-1-yl)pyridine-3-carboxamide], for which the EC30 under setting [1] is below 3000 nM.
Regarding `Cc1cccc(C)c1Cn1nc(-c2cccc(CN3CCOCC3)c2)cc1C(=O)NS(=O)(=O)c1ccccc1` [Compound 302, N-(benzenesulfonyl)-2-[(2,6-dimethylphenyl)methyl]-5-[3-(morpholinomethyl)phenyl]pyrazole-3-carboxamide], the 30% effect concentration (EC30) result under setting [2] was “++ (“++” means between 3 uM and 10 uM)”.
With `CCOc1cc(-c2ccc(C(=O)NS(=O)(=O)c3cccnc3N)c(N3C[C@@H](C)CC3(C)C)n2)ccc1F` [Compound 2665, N-[(2-amino-3-pyridyl)sulfonyl]-6-(3-ethoxy-4-fluoro-phenyl)-2-[(4S)-2,2,4-trimethylpyrrolidin-1-yl]pyridine-3-carboxamide], the concentration for an effect of 30% (EC30) under setting [1] was below 3000 nM.
On the same count and under the same terms, with `Cc1ccc(F)cc1-c1ccc(C(=O)NS(=O)(=O)c2cccnc2N)c(N2C[C@@H](C)CC2(C)C)n1` [Compound 2660, N-[(2-amino-3-pyridyl)sulfonyl]-6-(5-fluoro-2-methyl-phenyl)-2-[(4S)-2,2,4-trimethylpyrrolidin-1-yl]pyridine-3-carboxamide] the figure was below 3000 nM.
Take `Cc1ccc(-c2nc(-c3cc(F)cc(OC(C)C)c3)ccc2C(=O)NS(=O)(=O)c2cccc(N)n2)cc1` [Compound 722, N-[(6-amino-2-pyridyl)sulfonyl]-6-(3-fluoro-5-isopropoxy-phenyl)-2-(p-tolyl)pyridine-3-carboxamide]: the 30% effect concentration (EC30) result under setting [2] is reported as “+ (“+” means greater than 10 uM)”.
`Cc1cc(C)c(CN2Cc3ccccc3C2(C)C(=O)NS(=O)(=O)c2ncccc2O)c(C)c1` (stereo not drawn) [Compound 377, N-[(3-hydroxy-2-pyridyl)sulfonyl]-1-methyl-2-[(2,4,6-trimethylphenyl)methyl]isoindoline-1-carboxamide]: the 30% effect concentration (EC30) result under setting [2] is recorded as “+++ (“+++” means <3 uM)”.
With `Cc1cc(C)c(Oc2nc(-c3ccc(CC#N)cc3)ccc2C(=O)NS(=O)(=O)c2cccc(N)n2)c(C)c1` [Compound 638, N-[(6-amino-2-pyridyl)sulfonyl]-6-[4-(cyanomethyl)phenyl]-2-(2,4,6-trimethylphenoxy)pyridine-3-carboxamide], the 30% effect concentration (EC30) result under setting [2] is “++ (“++” means between 3 uM and 10 uM)”.
For `COc1cc(C)cc(OC)c1-c1ccc(C(=O)NS(=O)(=O)c2cccc(N)n2)c(Oc2c(C)cc(C)cc2C)n1` [Compound 629, N-[(6-amino-2-pyridyl)sulfonyl]-6-(2,6-dimethoxy-4-methyl-phenyl)-2-(2,4,6-trimethylphenoxy)pyridine-3-carboxamide], the EC30 result under setting [2] was “+++ (“+++” means <3 uM)”.
With `Cc1cc(C)c(Oc2nc3c(cc2C(=O)NS(=O)(=O)c2cccc(N)n2)COCC3(C)C)c(C)c1` [Compound 714, N-[(6-amino-2-pyridyl)sulfonyl]-8,8-dimethyl-2-(2,4,6-trimethylphenoxy)-5,7-dihydropyrano[4,3-b]pyridine-3-carboxamide], the 30% effect concentration (EC30) result under setting [2] is “+++ (“+++” means <3 uM)”.
Take `CC(c1ccccc1)n1c(C(=O)NS(=O)(=O)c2cccc(N)c2)cc2c(F)cccc21` (stereo not drawn) [Compound 186, N-(3-aminophenyl)sulfonyl-4-fluoro-1-(1-phenylethyl)indole-2-carboxamide]: the EC30 result under setting [2] is reported as “+++ (“+++” means <3 uM)”.
In the case of `COc1ccnc2c1cc(C(=O)NS(=O)(=O)c1cccc(N)n1)n2Cc1c(C)cc(C)cc1C` [Compound 539, N-[(6-amino-2-pyridyl)sulfonyl]-4-methoxy-1-[(2,4,6-trimethylphenyl)methyl]pyrrolo[2,3-b]pyridine-2-carboxamide], the concentration for an effect of 30% (EC30) result under setting [2] is reported as “+ (“+” means greater than 10 uM)”.
Regarding `COc1ccc(F)c(-c2ccc(C(=O)NS(=O)(=O)c3cccnc3N)c(N3C[C@@H](C)CC3(C)C)n2)c1` [Compound 2474, N-[(2-amino-3-pyridyl)sulfonyl]-6-(2-fluoro-5-methoxy-phenyl)-2-[(4S)-2,2,4-trimethylpyrrolidin-1-yl]pyridine-3-carboxamide], the concentration for an effect of 30% (EC30) under setting [1] was below 3000 nM.
With `CC(C)COc1cc(F)cc(-c2ccc(C(=O)NS(=O)(=O)c3cccc(N)n3)c(N3CCC(C)C(C)(C)C3)n2)c1` (stereo not drawn) [Compound 575, N-[(6-amino-2-pyridyl)sulfonyl]-6-(3-fluoro-5-isobutoxy-phenyl)-2-(3,3,4-trimethyl-1-piperidyl)pyridine-3-carboxamide], the EC30 entry under setting [2] is listed as “+++ (“+++” means <3 uM)”.
Consider `Cc1cc(C)c(Cn2nc(C(C)(C)C)cc2C(=O)NS(=O)(=O)c2ccc(O)cc2)c(C)c1` [Compound 269, 5-tert-butyl-N-(4-hydroxyphenyl)sulfonyl-2-[(2,4,6-trimethylphenyl)methyl]pyrazole-3-carboxamide], for which, under setting [2], the concentration for an effect of 30% (EC30) entry was “+++ (“+++” means <3 uM)”.
Turning to `Cc1cc(F)cc(-c2ccc(C(=O)NS(=O)(=O)c3cccnc3N)c(N3C[C@@H](C)CC3(C)C)n2)c1` [Compound 2505, N-[(2-amino-3-pyridyl)sulfonyl]-6-(3-fluoro-5-methyl-phenyl)-2-[(4S)-2,2,4-trimethylpyrrolidin-1-yl]pyridine-3-carboxamide], under setting [1], the concentration for an effect of 30% (EC30) is below 3000 nM.
Take `Cc1cc(C)c(Oc2cc(C(C)(C)C)ccc2C(=O)NS(=O)(=O)c2cccc(N)n2)c(C)c1` [Compound 102, N-[(6-amino-2-pyridyl)sulfonyl]-4-tert-butyl-2-(2,4,6-trimethylphenoxy)benzamide]: the 30% effect concentration (EC30) entry under setting [2] is given as “+++ (“+++” means <3 uM)”.
On to `CC(c1ccccc1)N1Cc2ccccc2C1C(=O)NS(=O)(=O)c1cccc(N)c1` (stereo not drawn) [Compound 187, N-(3-aminophenyl)sulfonyl-2-(1-phenylethyl)isoindoline-1-carboxamide], for which the concentration for an effect of 30% (EC30) entry under setting [2] was “++ (“++” means between 3 uM and 10 uM)”.
In the case of `CC(C)CCOc1cccc(S(=O)(=O)NC(=O)c2cccnc2N2CC(C)CC2(C)C)n1` (stereo not drawn) [Compound 2075, N-[(6-isopentyloxy-2-pyridyl)sulfonyl]-2-(2,2,4-trimethylpyrrolidin-1-yl)pyridine-3-carboxamide], the EC30 under setting [1] was below 3000 nM.
Still for that read-out and setting: under `C[C@@H]1CN(c2ncccc2C(=O)NS(=O)(=O)N2CC[C@@H](NCCCc3ccc(Cl)cc3)C2)C(C)(C)C1` [Compound 2710] stands 3000 to 10000 nM.
`C[C@@H]1CC[C@H](C)N1c1nc(-c2ccc(Cl)cc2)ccc1C(=O)NS(=O)(=O)c1cccc(N)n1` [Compound 459, N-[(6-amino-2-pyridyl)sulfonyl]-6-(4-chlorophenyl)-2-[(2S,5R)-2,5-dimethylpyrrolidin-1-yl]pyridine-3-carboxamide]: the EC30 entry under setting [2] is “+++ (“+++” means <3 uM)”.
`COc1cccc(CNc2cccc(S(=O)(=O)NC(=O)c3cccnc3N3CC(C)CC3(C)C)n2)c1` (stereo not drawn) [Compound 2168, N—[[6-[(3-methoxyphenyl)methylamino]-2-pyridyl]sulfonyl]-2-(2,2,4-trimethylpyrrolidin-1-yl)pyridine-3-carboxamide]: under setting [1], the EC30 was below 3000 nM.
Same read-out and setting: under `CC1CN(c2ncccc2C(=O)NS(=O)(=O)c2cccc(NCCc3ccc(Cl)cc3)n2)C(C)(C)C1` (stereo not drawn) [Compound 2262, N—[[6-[2-(4-chlorophenyl)ethylamino]-2-pyridyl]sulfonyl]-2-(2,2,4-trimethylpyrrolidin-1-yl)pyridine-3-carboxamide] stands below 3000 nM.
In the case of `COc1ccccc1S(=O)(=O)NC(=O)C1c2ccccc2CN1Cc1c(C)cc(C)cc1C` (stereo not drawn) [Compound 79, N-(2-methoxyphenyl)sulfonyl-2-[(2,4,6-trimethylphenyl)methyl]isoindoline-1-carboxamide], the EC30 entry under setting [2] is “++ (“++” means between 3 uM and 10 uM)”.
Turning to `Cc1cc(C)c(Cn2nc(OCc3ccccc3)cc2C(=O)NS(=O)(=O)c2cccc(N)c2)c(C)c1` [Compound 42, N-(3-aminophenyl)sulfonyl-5-benzyloxy-2-[(2,4,6-trimethylphenyl)methyl]pyrazole-3-carboxamide], the 30% effect concentration (EC30) entry under setting [2] was “++ (“++” means between 3 uM and 10 uM)”.
For the compound `CC1CN(c2ncccc2C(=O)NS(=O)(=O)c2cccc(Oc3cc(Cl)ccc3F)n2)C(C)(C)C1` (stereo not drawn) [Compound 2598, N—[[6-(5-chloro-2-fluoro-phenoxy)-2-pyridyl]sulfonyl]-2-(2,2,4-trimethylpyrrolidin-1-yl)pyridine-3-carboxamide], the EC30 under setting [1] was below 3000 nM.
Take `Cc1cccc(C)c1Cn1nc(-c2ccc(Cl)cc2)cc1C(=O)NS(=O)(=O)c1ccccc1` [Compound 28, N-(benzenesulfonyl)-5-(4-chlorophenyl)-2-[(2,6-dimethylphenyl)methyl]pyrazole-3-carboxamide]: the EC30 result under setting [2] was “+++ (“+++” means <3 uM)”.
Regarding `Cc1cc(C)c(Oc2nc(-c3cccc(C)n3)ccc2C(=O)NS(=O)(=O)c2cccc(N)n2)c(C)c1` [Compound 730, N-[(6-amino-2-pyridyl)sulfonyl]-6-(6-methyl-2-pyridyl)-2-(2,4,6-trimethylphenoxy)pyridine-3-carboxamide], the EC30 result under setting [2] was “+++ (“+++” means <3 uM)”.
For `Cc1cc(C)c(Oc2nc(-n3ccc(C(F)(F)F)n3)ccc2C(=O)NS(=O)(=O)c2cccc(N)n2)c(C)c1` [Compound 676, N-[(6-amino-2-pyridyl)sulfonyl]-6-[3-(trifluoromethyl)pyrazol-1-yl]-2-(2,4,6-trimethylphenoxy)pyridine-3-carboxamide], under setting [2], the EC30 result is on record as “+++ (“+++” means <3 uM)”.
Take `COc1cccnc1S(=O)(=O)NC(=O)c1ccc(C(C)(C)C)nc1Oc1c(C)cc(C)cc1C` [Compound 92, 6-tert-butyl-N-[(3-methoxy-2-pyridyl)sulfonyl]-2-(2,4,6-trimethylphenoxy)pyridine-3-carboxamide]: the 30% effect concentration (EC30) entry under setting [2] is on record as “+++ (“+++” means <3 uM)”.
